Laboratory results published in patent US20040086901A1, “Database for analyzing gene function and method of analyzing gene function by dspa” (priority 2000, published 2004).
Non-standard residues stand in square brackets, D forms with d. Residues, ends and D or L forms follow the SMILES beside them. Nle = CCCC[C@H](N)C(=O)O

Assays:
Assay type in all cases: cell-based, mouse
[1] = system: NIH3T3 cells overexpressing ERK-DN; assay: MTT cell viability, ERK-DN overexpressing cells vs parental line; conditions: ERK-DN high-expressing cells / parental cell line, 3 to 4 days
Method: (§1) With regard to the function-known genes, the genes shown in the left column of Table 2 were used. With regard to the drugs, those shown in Table 1 were dissolved in DMSO to an extent of 100-fold of the maximum concentration for the search of the drugs and used. With regard to the cells, incubated NIH3T3 or ras-NIH3T3 cells were used.
(§2) Full-length cDNA of each function-known genes was incorporated into an expression vector (pRc-CMV, etc.) and transfected into NIH3T3 cells by a common method. Transformed cells were isolated using the resistance to G-418 as an index and the expression of the transfected gene in each cell was investigated by Western blotting method to select a highly expressing line.
(§3) Cell viabilities were measured according to the following procedures.
(§4) 1) From the 2nd to the 11th rows of a 96-well plate were filled with DMEM (50 μl). The 12th row was filled with 100 μl of DMEM.
(§5) 2) The 1st row was filled with 98 μl of DMEM.
(§6) 3) Drugs (2 μl each) were added into the 1st row.
(§7) 4) Continuous double-dilution was conducted from the 1st to the 9th rows. Fifty μl were taken out from the 9th row and discarded. The plate was preserved in a CO2 incubator.
(§8) 5) Cells (each high-expressing cells and the parental cell line) were detached from the medium using a trypsin solution, suspended in 10% CS-DMEM and transferred to a test tube and cell numbers (cell/ml) were counted.
(§9) 6) The cells were diluted to a concentration of 1×10^5 cells/ml, and 50 μl of the cell suspension were added to the 1st to the 11th rows of the plate followed by gently stirring.
(§10) 7) The plate was transferred to the CO2 incubator and incubated for 3 to 4 days.
(§11) 8) MTT (5 mg/ml in PBS) (10 μl) was added to the 1st to the 12th rows of the plate and incubated in the CO2 incubator at 37° C. for 4 hours.
(§12) 9) A reaction stop solution (0.04N HCl in isopropanol) (150 μl) was added followed by mixing well and being allowed to stand at room temperature for about 2 hours.
(§13) 10) Coloration of formazan which was a metabolite of the MTT dye was measured using a microplate reader. The measurement wavelength was 574 nm and the reference wavelength was 655 nm. The 10th and the 11th rows of the plate were 100% controls and the 12th row was a 0% control.
(§14) As an index for the sensitivity of highly gene-expressing cells and the parental cell line to various drugs, each of the IC40 values thereof was specified and ratios of the IC40 values were calculated. […] After that, logarithmic values of ratios of IC40 values were calculated from each gene.

[2] = system: NIH3T3 cells overexpressing CaMKIIa-Active; assay: MTT cell viability, CaMKIIa-Active overexpressing cells vs parental line; conditions: CaMKIIa-Active high-expressing cells / parental cell line, 3 to 4 days
Method: as §1, §2, §3, §4, §5, §6, §7, §8, §9, §10, §11, §12, §13
(§15) As an index for the sensitivity of highly gene-expressing cells and the parental cell line to various drugs, each of the IC40 values thereof was specified and ratios of the IC40 values were calculated. FIG. 2 and FIG. 3 are the examples where ratios of IC40 values were calculated from a curve showing the dependency on the concentration of the chemical versus the viability. After that, logarithmic values of ratios of IC40 values were calculated from each gene.

[3] = system: NIH3T3 cells overexpressing HSP9O; assay: MTT cell viability, HSP9O overexpressing cells vs parental line; conditions: HSP9O high-expressing cells / parental cell line, 3 to 4 days
Method: as §1, §2, §3, §4, §5, §6, §7, §8, §9, §10, §11, §12, §13, §15

[4] = system: NIH3T3 cells overexpressing RhoA-DN; assay: MTT cell viability, RhoA-DN overexpressing cells vs parental line; conditions: RhoA-DN high-expressing cells / parental cell line, 3 to 4 days
Method: as §1, §2, §3, §4, §5, §6, §7, §8, §9, §10, §11, §12, §13, §14

[5] = system: NIH3T3 cells overexpressing C/EBPb; assay: MTT cell viability, C/EBPb overexpressing cells vs parental line; conditions: C/EBPb high-expressing cells / parental cell line, 3 to 4 days
Method: as §1, §2, §3, §4, §5, §6, §7, §8, §9, §10, §11, §12, §13, §14

[6] = system: NIH3T3 cells overexpressing C/EBPa; assay: MTT cell viability, C/EBPa overexpressing cells vs parental line; conditions: C/EBPa high-expressing cells / parental cell line, 3 to 4 days
Method: as §1, §2, §3, §4, §5, §6, §7, §8, §9, §10, §11, §12, §13, §14

[7] = system: NIH3T3 cells overexpressing Cip-1; assay: MTT cell viability, Cip-1 overexpressing cells vs parental line; conditions: Cip-1 high-expressing cells / parental cell line, 3 to 4 days
Method: as §1, §2, §3, §4, §5, §6, §7, §8, §9, §10, §11, §12, §13, §14

Row | SMILES | logarithmic value of ratio of IC40 values [1] | logarithmic value of ratio of IC40 values [2] | logarithmic value of ratio of IC40 values [3] | logarithmic value of ratio of IC40 values [4] | logarithmic value of ratio of IC40 values [5] | logarithmic value of ratio of IC40 values [6] | logarithmic value of ratio of IC40 values [7]
1 | COC(=O)[C@@]1(O)C[C@H]2O[C@]1(C)n1c3ccccc3c3c4c(c5c6ccccc6n2c5c31)C(=O)NC4 [K252a] | 0.05 | 0.10 | 0.56 | 0.28 | 0.25 | −0.48 | –
2 | CC(=O)OCOC(=O)CN(CC(=O)OCOC(C)=O)c1ccccc1OCCOc1ccccc1N(CC(=O)OCOC(C)=O)CC(=O)OCOC(C)=O [BAPTA-AM] | 0.12 | 0.18 | 0.60 | 0.09 | 0.81 | −0.62 | 0.00
3 | CCCC[C@@H](C=O)NC(=O)[C@H](CC(C)C)NC(=O)[C@H](CC(C)C)NC(C)=O [ALLN] (Ac-Leu-Leu-[Nle]-aldehyde) | 0.00 | 0.20 | 0.16 | 0.00 | 0.31 | 0.00 | 0.18
4 | COC[C@H]1OC(=O)c2coc3c2[C@@]1(C)C1=C(C3=O)[C@@H]2CCC(=O)[C@@]2(C)C[C@H]1OC(C)=O [Wortmannin, wortmannin] | −0.11 | 0.18 | 0.18 | 0.00 | 0.34 | 0.00 | –
5 | C=CC1=C(C)c2cc3[n-]c(cc4nc(cc5[n-]c(cc1n2)c(C)c5CCC(=O)O)C(CCC(=O)O)=C4C)c(C)c3C=C.[Cl-].[Cl-].[Sn+4] [SnPP] | 0.00 | 0.30 | – | 0.08 | −0.50 | 0.00 | −0.66
6 | CCCC[C@@H](C)/C=C(C)/C=C(\C)C(=O)NC1=C[C@@](O)(/C=C/C=C/C=C/C(=O)NC2=C(O)CCC2=O)[C@@H]2O[C@@H]2C1=O [Manumycin, manumycin] | −0.05 | 0.03 | −0.13 | −0.13 | 0.47 | 0.00 | 0.12
7 | C=C[C@@]1(C)CC(=O)[C@]2(O)[C@@]3(C)[C@@H](O)CCC(C)(C)[C@@H]3[C@H](O)[C@H](OC(C)=O)[C@@]2(C)O1 [Forskolin, forskolin] | 0.08 | 0.43 | 0.94 | −0.36 | 0.93 | 0.00 | –
8 | CN(C)CCCn1cc(C2=C(c3c[nH]c4ccccc34)C(=O)NC2=O)c2ccccc21 [GF109203X] | 0.48 | – | – | – | – | 0.00 | 0.30
9 | C[C@@H]1O[C@@H](O[C@H]2C[C@@H](O)[C@]3(CO)[C@H]4[C@H](O)C[C@]5(C)[C@@H](C6=CC(=O)OC6)CC[C@]5(O)[C@@H]4CC[C@]3(O)C2)[C@H](O)[C@H](O)[C@H]1O [Ouabain, ouabain] | 0.48 | 0.60 | 0.92 | 0.45 | 0.00 | 0.00 | 0.16
10 | O=CN/C=C/c1cc(O)ccc1O [Erbstatin, erbstatin] | 0.13 | 0.21 | 0.26 | −0.02 | 0.48 | 0.11 | –
